According to patent publication US20240300958A1, “COMPOUNDS AND THE USES AND PHARMACEUTICAL COMPOSITIONS THEREOF” (BEIJING YOUZHUJU NETWORK TECHNOLOGY CO. LTD., priority 2023, published 2024):

Target: DDR1 (Homo sapiens (Human), UniProt Q08345)
Assay: DDR1 kinase inhibition assay (FAM-labeled peptide), IC50
Type: biochemical
Method: 1× kinase base buffer (50 mM HEPES, pH 7.5, 0.0015% Brij-35) and a stop buffer (100 mM HEPES, pH 7.5, 0.015% Brij-35, 0.2% Coating Reagent #3, 50 mM EDTA) were prepared for testing kinases.
The compounds were diluted with 100% DMSO to 100 times the highest final inhibitor concentration required in the reaction. 100 μl of dilution of the compound was transferred to wells of a 96-well plate. For example, 100000 nM solution of the compound in DMSO was prepared in this step in case that an inhibitor concentration of 1000 nM is required. 100 μl of 100% DMSO was added to two empty wells of a 96-well plate for no compound control and no enzyme control. This plate was labeled as the source plate. A new 96-well plate with 5 μl of compound transferred from the source plate is used as an intermediate plate. 95 μl of 1× kinase buffer was added to each well of the intermediate plate. The compounds in the intermediate plate was mixed on a shaker for 10 minutes.
5 μl of sample in each well from the 96-well intermediate plate was transferred to the 384-well plate in duplicate. For example, well A1 of the 96-well plate was transferred to wells A2 and A1 of the 384-well plate, and well A2 of the 96-well plate was transferred to wells A3 and A4 of the 384-well plate, and so forth. 2.5× enzyme solution was prepared: 1× kinase basal buffer with added kinase. 2.5× peptide solution was prepared: 1× kinase basal buffer with added FAM-labeled peptide and ATP. To an assay plate already contained 5 μl of 10% dimethyl sulfoxide compound, 2.5× enzyme solution was transferred, and each well of the 384-well assay plate was added 10 μl of 2.5× enzyme solution. After incubation at room temperature for 10 minutes, 2.5× peptide solution was transferred to the assay plate. Each well of the 384-well assay plate was added 10 μl of 2.5× peptide solution. Kinase reaction and termination: incubation at 28° C. for a specified period followed by the addition of 25 μl stop buffer to stop the reaction. The data was read and collected.

DDR1, sequence (Q08345 other isoform, or with tags, fused parts or gaps isoform Q08345-2): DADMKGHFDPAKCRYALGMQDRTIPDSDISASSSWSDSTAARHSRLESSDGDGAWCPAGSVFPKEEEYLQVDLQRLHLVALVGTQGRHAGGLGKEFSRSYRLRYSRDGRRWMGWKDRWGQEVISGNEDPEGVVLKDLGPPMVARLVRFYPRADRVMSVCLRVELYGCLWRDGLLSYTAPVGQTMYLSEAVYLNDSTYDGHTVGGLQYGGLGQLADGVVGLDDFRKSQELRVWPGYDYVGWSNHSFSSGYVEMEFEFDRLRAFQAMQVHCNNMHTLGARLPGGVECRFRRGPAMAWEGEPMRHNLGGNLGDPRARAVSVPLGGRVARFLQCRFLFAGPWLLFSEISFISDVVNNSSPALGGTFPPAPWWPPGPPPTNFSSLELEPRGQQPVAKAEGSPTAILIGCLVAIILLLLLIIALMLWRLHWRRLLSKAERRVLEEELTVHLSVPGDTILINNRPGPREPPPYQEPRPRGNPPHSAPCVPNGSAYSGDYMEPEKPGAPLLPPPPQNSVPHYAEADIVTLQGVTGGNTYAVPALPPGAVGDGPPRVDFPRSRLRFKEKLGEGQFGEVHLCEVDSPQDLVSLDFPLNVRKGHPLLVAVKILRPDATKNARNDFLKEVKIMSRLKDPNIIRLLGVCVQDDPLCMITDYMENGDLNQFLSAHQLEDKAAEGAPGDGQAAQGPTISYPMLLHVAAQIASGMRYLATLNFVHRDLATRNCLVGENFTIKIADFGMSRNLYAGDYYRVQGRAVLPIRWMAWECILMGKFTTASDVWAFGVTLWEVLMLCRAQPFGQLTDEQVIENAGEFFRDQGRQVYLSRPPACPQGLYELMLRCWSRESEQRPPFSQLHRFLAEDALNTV

| IC50 [nM] | SMILES |
| --- | --- |
| < 500 | CCc1ccc(C(=O)Nc2ccccn2)cc1C#Cc1cnc2cc(C3=CCCCC3)cnn12 [Compound C9] |
| < 500 | CC(C)c1ccc(C(=O)Nc2ccccn2)cc1C#Cc1cnc2cc(C3=CCCCC3)cnn12 [Compound C10] |
| < 500 | Cc1ccc(C(=O)Nc2ccccn2)cc1-c1cccc(-c2cnc3cc(C4=CCCCC4)cnn23)c1 [Compound C11] |
| < 500 | Cc1cc(-c2cc(C(=O)Nc3ccccn3)ccc2C)cc(-c2cnc3cc(C4=CCCCC4)cnn23)c1 [Compound C12] |
| > 1000 | O=C(N[C@H]1CC[C@H](O)CC1)c1ccc2ccc(-c3ccc(NC4CCCCC4)cc3)cc2n1 [DC1, reference compound] |

Continued, compound first:

| SMILES | IC50 [nM] |
| --- | --- |
| Cc1ccc(C(=O)Nc2ccccn2)cc1C#Cc1cnc2cc(C3CCCCC3)cnn12 [Compound C2] | < 500 |
| Cc1ccc(C(=O)Nc2ccccn2)cc1C#Cc1cnc2cc(C3C=CCCC3)cnn12 (stereo not drawn) [Compound C3] | < 500 |
| Cc1ccc(C(=O)Nc2ccccn2)cc1C#Cc1cnc2cc(C3CC=CCC3)cnn12 (stereo not drawn) [Compound C4] | < 500 |
| Cc1ccc(C(=O)Nc2ccccn2)cc1C#Cc1cnc2cc(C3CCCC3)cnn12 [Compound C5] | < 500 |
| Cc1ccc(C(=O)Nc2ccccn2)cc1C#Cc1cnc2cc(C3=CCCC3)cnn12 [Compound C6] | < 500 |
| Cc1ccc(C(=O)Nc2ccccn2)cc1C#Cc1cnc2cc(C3C=CCC3)cnn12 (stereo not drawn) [Compound C7] | < 500 |
| Cc1ccc(C(=O)Nc2ccccn2)cc1C#Cc1cnc2cc(C3CC=CC3)cnn12 [Compound C8] | < 500 |
